Measurements: US20240317708A1, “INHIBITORS OF TRANSGLUTAMINASES” (ZEDIRA GMBH, priority 2021, published 2024)

Key:
[1] = target: T1, recombinant human transglutaminase 2 (Homo sapiens, UniProt P21980); assay: Transglutaminase assay (dansylcadaverine incorporation into dimethylcasein, DCC-assay); format: biochemical; settings: recombinant human TG2 10 nM, dansylcadaverine/dimethylcasein, 37° C.
T1 construct: purchased Zedira T022
T1 sequence (P21980 1-687): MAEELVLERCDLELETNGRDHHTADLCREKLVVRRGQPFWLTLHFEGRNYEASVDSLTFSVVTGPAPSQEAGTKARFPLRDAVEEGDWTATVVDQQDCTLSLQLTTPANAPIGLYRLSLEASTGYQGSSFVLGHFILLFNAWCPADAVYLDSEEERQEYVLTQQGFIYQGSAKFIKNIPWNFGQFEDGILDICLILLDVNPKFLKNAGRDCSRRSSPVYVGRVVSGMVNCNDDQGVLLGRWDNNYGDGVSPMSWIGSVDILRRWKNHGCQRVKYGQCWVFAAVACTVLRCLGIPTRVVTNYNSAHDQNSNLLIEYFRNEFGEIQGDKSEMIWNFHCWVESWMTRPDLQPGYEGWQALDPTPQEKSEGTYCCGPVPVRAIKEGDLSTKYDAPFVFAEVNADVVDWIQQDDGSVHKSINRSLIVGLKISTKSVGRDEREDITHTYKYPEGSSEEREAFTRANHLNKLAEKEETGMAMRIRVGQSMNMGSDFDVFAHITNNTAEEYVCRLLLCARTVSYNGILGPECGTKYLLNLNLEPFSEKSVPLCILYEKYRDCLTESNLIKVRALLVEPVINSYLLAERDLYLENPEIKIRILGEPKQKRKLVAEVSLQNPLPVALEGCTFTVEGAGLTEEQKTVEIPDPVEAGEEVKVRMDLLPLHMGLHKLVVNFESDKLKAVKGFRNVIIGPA
Method in brief: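 IC50 derived from fluorescence slope between 20 and 30 min (λex 330 nm, λem 500 nm, 37 °C), expressed relative to a 2% DMSO control. Reaction: 10 nM recombinant human TG2, 4 μM dimethylcasein, 16.7 μM dansylcadaverine, 10 mM CaCl2 and glutathione, pH 8.0.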

[2] = Log D shake flask method (octanol / PBS pH 7.4, HPLC); format: physicochemical; settings: octanol/phosphate-buffered saline (PBS); octanol / PBS pH 7.4, shake flask
Procedure: In order to classify the inventive compounds according to their lipophilicity, Log D values (distribution coefficient) were determined by means of the well-established shake flask method, measuring the partition of a compound between an octanol and phosphate-buffered saline (PBS, pH 7.4) by HPLC.

[3] = Caco-2 permeability assay (CacoReady kit); format: in vitro ADME; settings: human
Method in brief: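 Read-out is the permeability coefficient Papp, obtained from transport across a Caco-2 barrier prepared from a ready-to-use kit following the manufacturer's instructions.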

SMILES | IC50 [1] [µM] | logD [2] | Papp [3] [×10⁻⁶ cm/s]
COC(=O)/C=C/CC[C@H](NC(=O)c1cnnn1C)C(=O)Nc1cccn(CC(=O)N[C@@H]2C[C@@H]3CC[C@H]2C3)c1=O [III-116, (S,E)-methyl 7-(1-(2-((1S,2R,4R)-bicyclo[2.2.1]heptan-2-ylamino)-2-oxoethyl)-2-oxo-1,2-dihydropyridin-3-ylamino)-6-(1-methyl-1H-1,2,3-triazole-5-carboxamido)-7-oxohept-2-enoate] | < 0.025 | < 1 | < 1
COC(=O)/C=C/CC[C@H](NC(=O)c1oc2ccccc2c1C)C(=O)Nc1cccn(CC(=O)NC2C3CC4CC2CC(C)(C4)C3)c1=O (stereo partly drawn) [III-42, (S,E)-methyl 7-(1-(2-(5-methyladamantan-2-amino)-2-oxoethyl)-2-oxo-1,2-dihydropyridin-3-ylamino)-6-(3-methylbenzofuran-2-carboxamido)-7-oxohept-2-enoate] | < 0.025 | 3 to 5 | 1 to 10
COC(=O)/C=C/CC[C@H](NC(=O)c1cc2cccc(F)c2s1)C(=O)Nc1cccn(CC(=O)NC2C3CC4CC(C3)CC2C4)c1=O (stereo partly drawn) [III-7, (S,E)-methyl 6-(7-fluorobenzo[b]thiophene-2-carboxamido)-7-(1-(2-(2-adamantylamino)-2-oxoethyl)-2-oxo-1,2-dihydropyridin-3-ylamino)-7-oxohept-2-enoate] | < 0.025 | 3 to 5 | 1 to 10
COC(=O)/C=C/CC[C@H](NC(=O)c1snnc1C)C(=O)Nc1cccn(CC(=O)NC23CC4(C)CC(C)(CC(C)(C4)C2)C3)c1=O [III-108, (S,E)-methyl 7-(1-(2-(3,5,7-trimethyl-1-adamantylamino)-2-oxoethyl)-2-oxo-1,2-dihydropyridin-3-ylamino)-6-(4-methyl-1,2,3-thiadiazole-5-carboxamido)-7-oxohept-2-enoate] | < 0.025 | 3 to 5 | < 1
COC(=O)/C=C/CC[C@H](NC(=O)c1cc(Cl)sc1Cl)C(=O)Nc1cccn(CC(=O)NC23CC4CC(C)(CC(C)(C4)C2)C3)c1=O [III-124, (S,E)-methyl 6-(2,5-dichlorothiophene-3-carboxamido)-7-(1-(2-(3,5-dimethyladamantane-1-amino)-2-oxoethyl)-2-oxo-1,2-dihydropyridin-3-ylamino)-7-oxohept-2-enoate] | < 0.025 | 3 to 5 | 1 to 10
COC(=O)/C=C/CC[C@H](NC(=O)c1noc(C)n1)C(=O)Nc1cccn(CC(=O)NC23CC(C2)C3)c1=O [III-168, (S,E)-methyl 7-(1-(2-(bicyclo[1.1.1]pentan-1-ylamino)-2-oxoethyl)-2-oxo-1,2-dihydropyridin-3-ylamino)-6-(5-methyl-1,2,4-oxadiazole-3-carboxamido)-7-oxohept-2-enoate] | 0.25 to 1.5 | < 1 | < 1
COC(=O)/C=C/CC[C@H](NC(=O)c1cn[nH]n1)C(=O)Nc1cccn(CC(=O)NC2C3CC4CC(C3)CC2C4)c1=O (stereo partly drawn) [III-101, (S,E)-methyl 7-(1-(2-(2-adamantylamino)-2-oxoethyl)-2-oxo-1,2-dihydropyridin-3-ylamino)-7-oxo-6-(2H-1,2,3-triazole-4-carboxamido)hept-2-enoate] | 0.025 to 0.25 | 1 to 3 | < 1
CC(C)OC(=O)/C=C/CC[C@H](NC(=O)c1cn[nH]n1)C(=O)Nc1cccn(CC(=O)NC23CCC(C2)C3)c1=O [III-158, (S,E)-isopropyl 7-(1-(2-(bicyclo[2.1.1]hexan-1-ylamino)-2-oxoethyl)-2-oxo-1,2-dihydropyridin-3-ylamino)-7-oxo-6-(2H-1,2,3-triazole-4-carboxamido)hept-2-enoate] | 0.25 to 1.5 | < 1 | < 1
COC(=O)/C=C/CC[C@H](NC(=O)[C@H]1CCNC1)C(=O)Nc1cccn(CC(=O)NC2C3CC4CC(C3)CC2C4)c1=O (stereo partly drawn) [III-26, (S,E)-methyl 7-(1-(2-(2-adamantylamino)-2-oxoethyl)-2-oxo-1,2-dihydropyridin-3-ylamino)-7-oxo-6-((S)-pyrrolidine-3-carboxamido)hept-2-enoate] | 0.025 to 0.25 | 1 to 3 | 1 to 10
COC(=O)/C=C/CC[C@H](NC(=O)[C@@H]1CCCCN1)C(=O)Nc1cccn(CC(=O)NC2C3CC4CC(C3)CC2C4)c1=O (stereo partly drawn) [III-29, (S,E)-methyl 7-(1-(2-(2-adamantylamino)-2-oxoethyl)-2-oxo-1,2-dihydropyridin-3-ylamino)-7-oxo-6-((S)-piperidine-2-carboxamido)hept-2-enoate] | 0.025 to 0.25 | 3 to 5 | < 1
COC(=O)/C=C/CC[C@H](NC(=O)c1cncn1C)C(=O)Nc1cccn(CC(=O)NC2C3CC4CC(C3)CC2C4)c1=O (stereo partly drawn) [III-1, (S,E)-methyl 7-(1-(2-(2-adamantylamino)-2-oxoethyl)-2-oxo-1,2-dihydropyridin-3-ylamino)-6-(1-methyl-1H-imidazole-5-carboxamido)-7-oxohept-2-enoate] | < 0.025 | 1 to 3 | < 1
COC(=O)/C=C/CC[C@H](NC(=O)c1oc2ccccc2c1C)C(=O)Nc1cccn(CC23CC4CC(CC(C4)C2)C3)c1=O [III-79, (S,E)-methyl 7-(1-(1-adamantylmethyl)-2-oxo-1,2-dihydropyridin-3-ylamino)-6-(3-methylbenzofuran-2-carboxamido)-7-oxohept-2-enoate] | 0.25 to 1.5 | 3 to 5 | 1 to 10
CN(C)C(=O)/C=C/CC[C@H](NC(=O)c1cncn1C)C(=O)Nc1cccn(CC(=O)NC2C3CC4CC(C3)CC2C4)c1=O (stereo partly drawn) [III-76, (S,E)-N^7-(1-(2-(2-adamantylamino)-2-oxoethyl)-2-oxo-1,2-dihydropyridin-3-yl)-N^1,N^1-dimethyl-6-(1-methyl-1H-imidazole-5-carboxamido)hept-2-enediamide] | 0.025 to 0.25 | 1 to 3 | < 1
COC(=O)/C=C/CC[C@H](NC(=O)c1sc(C(F)(F)F)nc1C)C(=O)Nc1cccn(CC(=O)NC23CC4(C)CC(C)(CC(C)(C4)C2)C3)c1=O [III-95, (S,E)-methyl 7-(1-(2-(3,5,7-trimethyl-1-adamantylamino)-2-oxoethyl)-2-oxo-1,2-dihydropyridin-3-ylamino)-6-(4-methyl-2-(trifluoromethyl)thiazole-5-carboxamido)-7-oxohept-2-enoate] | < 0.025 | 3 to 5 | 1 to 10
COC(=O)/C=C/CC[C@H](NC(=O)c1oc2ccccc2c1C)C(=O)Nc1cccn(CC(=O)NC2C3CC4CC2CC(Cl)(C4)C3)c1=O (stereo partly drawn) [III-40, (S,E)-methyl 7-(1-(2-(5-chloroadamantan-2-amino)-2-oxoethyl)-2-oxo-1,2-dihydropyridin-3-ylamino)-6-(3-methylbenzofuran-2-carboxamido)-7-oxohept-2-enoate] | < 0.025 | 3 to 5 | 1 to 10
COC(=O)/C=C/CC[C@H](NC(=O)c1cnc(C(C)C)o1)C(=O)Nc1cccn(CC(=O)NC23CCC(C2)C3)c1=O [III-134, (S,E)-methyl 7-(1-(2-(bicyclo[2.1.1]hexan-1-ylamino)-2-oxoethyl)-2-oxo-1,2-dihydropyridin-3-ylamino)-6-(2-isopropyloxazole-5-carboxamido)-7-oxohept-2-enoate] | 0.025 to 0.25 | 1 to 3 | 1 to 10
COC(=O)/C=C/CC[C@H](NC(=O)c1oc2ccccc2c1C)C(=O)Nc1cccn(CC(=O)NC2C3CCC2CC3)c1=O (stereo partly drawn) [III-65, (S,E)-methyl 7-(1-(2-(bicyclo[2.2.1]heptan-7-ylamino)-2-oxoethyl)-2-oxo-1,2-dihydropyridin-3-ylamino)-6-(3-methylbenzofuran-2-carboxamido)-7-oxohept-2-enoate] | < 0.025 | 3 to 5 | 1 to 10
COC(=O)/C=C/CC[C@H](NC(=O)c1nc[nH]n1)C(=O)Nc1cccn(CC(=O)NC2C3CC4CC(C3)CC2C4)c1=O (stereo partly drawn) [III-104, (S,E)-methyl 7-(1-(2-(2-adamantylamino)-2-oxoethyl)-2-oxo-1,2-dihydropyridin-3-ylamino)-7-oxo-6-(1H-1,2,4-triazole-3-carboxamido)hept-2-enoate] | 0.025 to 0.25 | 1 to 3 | < 1
CCC12CC3CC(C1)CC(NC(=O)Cn1cccc(NC(=O)[C@H](CC/C=C/C(=O)OC)NC(=O)c4oc5ccccc5c4C)c1=O)(C3)C2 [III-48, (S,E)-methyl 7-(1-(2-(3-ethyladamantan-1-amino)-2-oxoethyl)-2-oxo-1,2-dihydropyridin-3-ylamino)-6-(3-methylbenzofuran-2-carboxamido)-7-oxohept-2-enoate] | 0.025 to 0.25 | 3 to 5 | 1 to 10
